Reference: the supplement of paper PMC11451515

Test system: NOMO1
Experiment: cell viability relative to DMSO control; higher = less cytotoxic
Conditions: 48 h
Outline: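 Library compounds in DMSO were pin-dosed into 1536-well plates (5 μl) holding NOMO1 or SEM (500 cells/well) or P12-Ichikawa (1000 cells/well) leukemia cells, across an 11-point threefold series of 47 μM to 0.79 nM. Each cell line had been adapted for at least four passages in each medium. CellTiter-Glo One luminescence was read after 48 h at 37°C. Viability is the per-plate percentage relative to DMSO wells, with cell-free wells as background.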

[1] = HPLM + 10% dialyzed FBS, 0.000781 µM
[2] = HPLM + 10% dialyzed FBS, 0.00234 µM
[3] = HPLM + 10% dialyzed FBS, 0.00702 µM
[4] = HPLM + 10% dialyzed FBS, 0.0211 µM
[5] = HPLM + 10% dialyzed FBS, 0.0632 µM
[6] = HPLM + 10% dialyzed FBS, 0.19 µM
[7] = HPLM + 10% dialyzed FBS, 0.569 µM
[8] = HPLM + 10% dialyzed FBS, 1.71 µM
[9] = HPLM + 10% dialyzed FBS, 5.12 µM
[10] = HPLM + 10% dialyzed FBS, 15.4 µM
[11] = HPLM + 10% dialyzed FBS, 46.1 µM
[12] = RPMI 5 mM glucose + 10% FBS, 0.000781 µM
[13] = RPMI 5 mM glucose + 10% FBS, 0.00234 µM
[14] = RPMI 5 mM glucose + 10% FBS, 0.00702 µM
[15] = RPMI 5 mM glucose + 10% FBS, 0.0211 µM
[16] = RPMI 5 mM glucose + 10% FBS, 0.0632 µM
[17] = RPMI 5 mM glucose + 10% FBS, 0.19 µM
[18] = RPMI 5 mM glucose + 10% FBS, 0.569 µM
[19] = RPMI 5 mM glucose + 10% FBS, 1.71 µM
[20] = RPMI 5 mM glucose + 10% FBS, 5.12 µM
[21] = RPMI 5 mM glucose + 10% FBS, 15.4 µM
[22] = RPMI 5 mM glucose + 10% FBS, 46.1 µM
[23] = RPMI 5 mM glucose + 10% dialyzed FBS, 0.000781 µM
[24] = RPMI 5 mM glucose + 10% dialyzed FBS, 0.00234 µM
[25] = RPMI 5 mM glucose + 10% dialyzed FBS, 0.00702 µM
[26] = RPMI 5 mM glucose + 10% dialyzed FBS, 0.0211 µM
[27] = RPMI 5 mM glucose + 10% dialyzed FBS, 0.0632 µM
[28] = RPMI 5 mM glucose + 10% dialyzed FBS, 0.19 µM
[29] = RPMI 5 mM glucose + 10% dialyzed FBS, 0.569 µM
[30] = RPMI 5 mM glucose + 10% dialyzed FBS, 1.71 µM
[31] = RPMI 5 mM glucose + 10% dialyzed FBS, 5.12 µM
[32] = RPMI 5 mM glucose + 10% dialyzed FBS, 15.4 µM
[33] = RPMI 5 mM glucose + 10% dialyzed FBS, 46.1 µM

| Compound | cell viability [1] | cell viability [2] | cell viability [3] | cell viability [4] | cell viability [5] | cell viability [6] | cell viability [7] | cell viability [8] | cell viability [9] | cell viability [10] | cell viability [11] | cell viability [12] | cell viability [13] | cell viability [14] | cell viability [15] | cell viability [16] | cell viability [17] | cell viability [18] | cell viability [19] | cell viability [20] | cell viability [21] | cell viability [22] | cell viability [23] | cell viability [24] | cell viability [25] | cell viability [26] | cell viability [27] | cell viability [28] | cell viability [29] | cell viability [30] | cell viability [31] | cell viability [32] | cell viability [33] |
| --- | --- | --- | --- | --- | --- | --- | --- | --- | --- | --- | --- | --- | --- | --- | --- | --- | --- | --- | --- | --- | --- | --- | --- | --- | --- | --- | --- | --- | --- | --- | --- | --- | --- |
| COc1cccc2c(NCc3ccccc3)nc(-n3c(N)nc4ccccc43)nc12 | 85.6% | 106% | 94.9% | 110% | 129% | 105% | 115% | 107% | 107% | 97% | 18.8% | 92.8% | 96.2% | 105% | 105% | 117% | 107% | 106% | 101% | 101% | 102% | 16.7% | 91.2% | 96.2% | 119% | 111% | 111% | 108% | 103% | 112% | 100% | 97.2% | 23.3% |
| CCc1cccc2c3c([nH]c12)C(CC)(CC(=O)O)OCC3 (stereo not drawn) | 98.5% | 98.5% | 122% | 105% | 100% | 113% | 88.4% | 97.8% | 97.4% | 100% | 84.5% | 95% | 92.7% | 95.9% | 102% | 85% | 90.4% | 98.1% | 93.2% | 93.6% | 84.7% | 87.2% | 100% | 94.3% | 95.1% | 87.3% | 82.4% | 77.7% | 89.3% | 87.5% | 92.9% | 82.9% | 97.1% |
| CC[C@H](NC(C)C)[C@H](O)c1ccc(O)c2[nH]c(=O)ccc12 | 113% | 103% | 108% | 97.6% | 108% | 113% | 124% | 107% | 108% | 96.8% | 104% | 91.2% | 95.8% | 88.7% | 95.7% | 84.6% | 107% | 101% | 94.5% | 97% | 84.1% | 90.6% | 84.7% | 109% | 104% | 94.4% | 102% | 107% | 96.9% | 95.3% | 94.6% | 87% | 91.2% |
| O=C(O)CCNc1cc(N2CCc3ccccc3CC2)nc(-c2ccccn2)n1 | 111% | 133% | 115% | 138% | 140% | 123% | 111% | 116% | 117% | 94.5% | 75.9% | 121% | 105% | 107% | 111% | 104% | 128% | 115% | 106% | 116% | 105% | 92.9% | 121% | 123% | 124% | 128% | 127% | 121% | 136% | 111% | 117% | 97.3% | 96.1% |
| FC(F)(F)C1=CC=C2C(SCCCCCO\C3=C\O\C(CN4CCOCC4)=C/C3=O)=CC=NC2=C1 | 96% | 122% | 144% | 119% | 122% | 139% | 137% | 128% | 131% | 124% | 107% | 116% | 124% | 107% | 103% | 118% | 135% | 118% | 121% | 122% | 112% | 109% | 99.3% | 118% | 105% | 114% | 131% | 112% | 125% | 129% | 114% | 109% | 92.4% |
| CCNC(=O)Nc1ccc(-c2nc3c(c(N4CCOC[C@@H]4C)n2)CCN(C2COC2)C3)cc1 | 117% | 130% | 102% | 119% | 101% | 95.9% | 88.6% | 66.5% | 57.6% | 44.5% | 40.5% | 109% | 102% | 105% | 107% | 105% | 94.6% | 98.9% | 84.6% | 67.3% | 52.8% | 46.6% | 108% | 115% | 119% | 102% | 98.4% | 97.2% | 101% | 66.7% | 66.5% | 52.8% | 45.4% |
| NCCCCCC(=O)O | 97.6% | 95.2% | 104% | 88.4% | 107% | 119% | 110% | 110% | 96.3% | 97% | 99.1% | 91.2% | 94.7% | 108% | 94.2% | 102% | 107% | 86.4% | 92.5% | 97.1% | 88.2% | 95.9% | 80.4% | 92.8% | 107% | 93.4% | 97.3% | 103% | 92.7% | 87.8% | 93.9% | 85.6% | 96.4% |
| OC(CCN1CCCCC1)(C2CC\3CC2\C=C3)C4=CC=CC=C4 (stereo not drawn) | 125% | 119% | 125% | 123% | 140% | 133% | 138% | 144% | 136% | 117% | 94.2% | – | – | – | – | – | – | – | – | – | – | – | – | – | – | – | – | – | – | – | – | – | – |
| CCCC1=N[N](C)C2=C1\N=C(/NC2=O)C3=CC(=CC=C3OCC)[S+]([O-])(=O)N4CCN(C)CC4 | 85.1% | 83.9% | 81.6% | 83.7% | 86.1% | 87.9% | 98.8% | 82.4% | 81.1% | 83.6% | 52.8% | 79.5% | 92.9% | 77.4% | 81.6% | 76% | 90.2% | 72% | 83.7% | 77.3% | 79.3% | 76.9% | 94.4% | 88% | 91.9% | 84.5% | 72.3% | 96% | 82.3% | 77.1% | 77.4% | 85.2% | 80.8% |
| Cc1cc(SCc2sc(-c3ccc(C(F)(F)F)cc3)nc2C)ccc1OCC(=O)O | 102% | 113% | 97.5% | 124% | 109% | 110% | 104% | 92.3% | 102% | 94.8% | 78.1% | 100% | 97.1% | 85.9% | 99.1% | 90.3% | 95% | 90.7% | 102% | 86.6% | 91.4% | 81.9% | 93.2% | 95.1% | 101% | 108% | 92.2% | 102% | 99.6% | 97.7% | 101% | 89.2% | 83.1% |
| C=CC(=O)Nc1cccc(Oc2nc(Nc3ccc(N4CCN(C)CC4)cc3OC)ncc2Cl)c1 | 64.3% | 69.5% | 78.3% | 79.1% | 81.9% | 80.6% | 73.9% | 76.5% | 54.7% | 45.1% | 33.3% | 72.9% | 74.3% | 79.3% | 78.8% | 87.1% | 102% | 82.1% | 52.1% | 67.3% | 62.1% | 55.8% | 69.6% | 77.9% | 79.4% | 85.8% | 80.6% | 79.2% | 77.3% | 87.9% | 66.1% | 72.2% | 45.5% |
| COc1ccc2c(OCc3nnc4ccc(-c5ccccc5)nn34)ccnc2c1 | 94.4% | 98.9% | 86.7% | 92.8% | 90.2% | 93.9% | 104% | 83.9% | 94% | 104% | 65.2% | 113% | 123% | 116% | 116% | 117% | 114% | 117% | 116% | 112% | 113% | 116% | 113% | 123% | 133% | 119% | 129% | 102% | 131% | 116% | 115% | 119% | 122% |
| CO[C@H]1/C=C/O[C@@]2(C)Oc3c(C)c(O)c4c(O)c(c(/C=N\N5CCN(C6CCCC6)CC5)c(O)c4c3C2=O)NC(=O)/C(C)=C\C=C\[C@H](C)[C@H](O)[C@@H](C)[C@@H](O)[C@@H](C)[C@H](OC(C)=O)[C@@H]1C | 119% | 123% | 104% | 116% | 90.5% | 93.4% | 79.3% | 52.3% | 28.9% | 6.78% | 0.815% | 123% | 110% | 111% | 107% | 109% | 76.5% | 75.1% | 51.8% | 17.9% | 3.98% | 0.906% | 100% | 98.4% | 95.2% | 80.2% | 83.4% | 79.3% | 64.7% | 52.9% | 24.1% | 3.08% | 0.433% |
| COc1ccc(CC2c3cc(OC)c(OC)cc3CC[N+]2(C)CCC(=O)OCCCCCOC(=O)CC[N+]2(C)CCc3cc(OC)c(OC)cc3C2Cc2ccc(OC)c(OC)c2)cc1OC (stereo not drawn) | 91% | 98.8% | 116% | 98.5% | 109% | 98.8% | 93.6% | 92.2% | 77.1% | 29.9% | 7.29% | 77.8% | 77.8% | 85.7% | 89.3% | 98.6% | 93% | 85.7% | 97.5% | 87.5% | 65% | 8.84% | 75.5% | 87% | 79.2% | 93.3% | 85.8% | 92% | 84.6% | 90% | 70% | 67.5% | 8.69% |
| FC1=CC=C(CN2\C=C/C=C(/C(=O)N[C@@H](COC3=CC4=C(NC(=O)N4)C=C3)C5=CC=CC=C5)C2=O)C=C1F | 86.7% | 91.5% | 97% | 111% | 103% | 109% | 97.6% | 82.8% | 64.6% | 53.8% | 43.5% | 77.8% | 80.1% | 88.4% | 79.9% | 82.8% | 96.6% | 85.8% | 86.8% | 69.2% | 60.3% | 45.9% | 88.7% | 86.8% | 97.7% | 82.8% | 84.4% | 89.5% | 82.3% | 73.9% | 63.3% | 57.6% | 44.3% |
